This note sets out measurements from paper PMC1208959 (Virology Journal, 2005).

SMILES strings stand for the structures.

As for `CC[C@H](C)[C@H](NC(=O)[C@H](Cc1ccc(O)cc1)NC(=O)[C@H](CC(=O)O)NC(=O)[C@H](CCCCN)NC(=O)[C@H](CO)NC(=O)[C@H](CCC(N)=O)NC(=O)[C@H](CCC(N)=O)NC(=O)[C@H](CC(C)C)NC(=O)[C@H](CO)NC(=O)[C@H](CCC(N)=O)NC(=O)[C@H](CC(N)=O)NC(=O)[C@H](CCSC)NC(=O)[C@H](CO)NC(=O)[C@H](CO)NC(=O)[C@@H](NC(=O)[C@H](CCC(N)=O)NC(=O)[C@H](CO)NC(=O)[C@H](CO)NC(=O)[C@@H](NC(=O)[C@H](CC(=O)O)NC(=O)[C@@H](NC(=O)[C@H](CCCCN)NC(=O)CCOCCOCCOCCOCCOCCOCCOCCOCCOCCOCCOCCOCCNC(C)=O)C(C)C)[C@@H](C)CC)[C@@H](C)CC)C(=O)N[C@@H](CCCCN)C(=O)N[C@@H](CCC(=O)O)C(=O)N[C@@H](C)C(=O)N[C@@H](CCC(N)=O)C(=O)N[C@@H](CCCNC(=N)N)C(=O)N[C@@H](CC(C)C)C(=O)N[C@@H](CC(C)C)C(=O)N[C@@H](CC(=O)O)C(=O)N[C@H](C(=O)N[C@H](C(=O)N[C@@H](CC(N)=O)C(=O)N1CCC[C@H]1C(=O)N[C@@H](CO)C(=O)N[C@@H](CC(C)C)C(N)=O)C(C)C)[C@@H](C)O` [N-PEG NiV FC2], in the assay on live HeV, the “number of syncytia per cell monolayer (in words)” value was “largely unchanged”; the “syncytial morphology and size (in words)” value is “dramatic and robust reduction in syncytial size”. Besides, in the assay on live NiV, the “number of syncytia per cell monolayer (in words)” value is reported as “largely unchanged”; the “syncytial morphology and size (in words)” value was “dramatic and robust reduction in syncytial size”.
